In patent US9504729B2, “Antiangiogenic small molecules and methods of use” (The United States of America, as represented by the …, priority 2009, dated 2016):
Structures can show the parent of a compound that is named as a salt. Where two headings read alike, the source gives them in different places.

Tests used:
PAE cells [1] = assay: Growth dose response (IC50) in PAE; type: cell-based, porcine; conditions: read-out: Growth IC50 (M) in PAE
Source text: FIG. 6: Dose response curves were constructed for all the SMs of interest using PAE cells. Data were fitted to non-linear sigmoid curves using GraphPad Prism (GraphPad Software, Inc., La Jolla, Calif.).
Dose response curves were constructed for all the SM of interest using PAE cells. Data were fitted to non-linear sigmoid curves using GraphPad Prism (GraphPad software, Inc.).

PAE = assay: Apoptosis in PAE; type: cell-based, porcine
PAE cells [2] = test system: PAE cells
endothelial cells = assay: Primary screening: cell-based growth HTS and tube formation HTS (bioactivity class)
Method: All assays were performed in clear bottom black 96-well plates. The plates were always arranged to include a column for negative controls (column 1), a column for positive controls (column 12), and 10 columns for evaluation of 80 compounds. In order to increase stringency and avoid false positives in the HTS assays, all compounds were tested at a low final concentration of 1 μM.
In summary, 1,000 cells/well were seeded in the 96-well plates described above. Cells in columns 2-12 were seeded in 10% FBS and cells in column 1 (negative control) were seeded in 0% FBS. Small molecules (80 per plate) were added in columns 2-11 at a final concentration of 1 μM (both positive and negative controls were exposed to the same percentage of DMSO in wells containing test compounds). The fluorescence emitted by every well was measured spectrophotometrically (Infinite M200, TECAN®, Mannedorf, Switzerland) every 24 hours for 5-7 days.
In summary, 20,000 cells/well were seeded on top of 50 μl of pre-gelled GELTREX® gel matrix (Invitrogen, Carlsbad, Calif.). All cells were seeded in 10% FBS. […] Small molecules (80 per plate) were added to columns 2-11 at a final concentration of 1 μM (both positive and negative controls were exposed to the same percentage of DMSO in wells containing test compounds). Plates were incubated for 5-7 hours and automatically imaged with the help of an epifluorescence microscope (Axiovert® 200M, Zeiss) equipped with a motorized stage and AxioVision® (Zeiss) software.
For hit detection, a stringent threshold (sigma 3.5) was applied to avoid false positives.

in vitro = conditions: pig
PAE cells [3] = assay: Fluorescence-release cytotoxicity assay; conditions: endothelial cells
KDR(VEGFR2) = KDR(VEGFR2) (Homo sapiens, UniProt P35968); assay: SelectScreen kinase activity profiling, KDR(VEGFR2); type: biochemical; conditions: VEGFR2 receptor
KDR(VEGFR2), sequence (P35968 20-1356): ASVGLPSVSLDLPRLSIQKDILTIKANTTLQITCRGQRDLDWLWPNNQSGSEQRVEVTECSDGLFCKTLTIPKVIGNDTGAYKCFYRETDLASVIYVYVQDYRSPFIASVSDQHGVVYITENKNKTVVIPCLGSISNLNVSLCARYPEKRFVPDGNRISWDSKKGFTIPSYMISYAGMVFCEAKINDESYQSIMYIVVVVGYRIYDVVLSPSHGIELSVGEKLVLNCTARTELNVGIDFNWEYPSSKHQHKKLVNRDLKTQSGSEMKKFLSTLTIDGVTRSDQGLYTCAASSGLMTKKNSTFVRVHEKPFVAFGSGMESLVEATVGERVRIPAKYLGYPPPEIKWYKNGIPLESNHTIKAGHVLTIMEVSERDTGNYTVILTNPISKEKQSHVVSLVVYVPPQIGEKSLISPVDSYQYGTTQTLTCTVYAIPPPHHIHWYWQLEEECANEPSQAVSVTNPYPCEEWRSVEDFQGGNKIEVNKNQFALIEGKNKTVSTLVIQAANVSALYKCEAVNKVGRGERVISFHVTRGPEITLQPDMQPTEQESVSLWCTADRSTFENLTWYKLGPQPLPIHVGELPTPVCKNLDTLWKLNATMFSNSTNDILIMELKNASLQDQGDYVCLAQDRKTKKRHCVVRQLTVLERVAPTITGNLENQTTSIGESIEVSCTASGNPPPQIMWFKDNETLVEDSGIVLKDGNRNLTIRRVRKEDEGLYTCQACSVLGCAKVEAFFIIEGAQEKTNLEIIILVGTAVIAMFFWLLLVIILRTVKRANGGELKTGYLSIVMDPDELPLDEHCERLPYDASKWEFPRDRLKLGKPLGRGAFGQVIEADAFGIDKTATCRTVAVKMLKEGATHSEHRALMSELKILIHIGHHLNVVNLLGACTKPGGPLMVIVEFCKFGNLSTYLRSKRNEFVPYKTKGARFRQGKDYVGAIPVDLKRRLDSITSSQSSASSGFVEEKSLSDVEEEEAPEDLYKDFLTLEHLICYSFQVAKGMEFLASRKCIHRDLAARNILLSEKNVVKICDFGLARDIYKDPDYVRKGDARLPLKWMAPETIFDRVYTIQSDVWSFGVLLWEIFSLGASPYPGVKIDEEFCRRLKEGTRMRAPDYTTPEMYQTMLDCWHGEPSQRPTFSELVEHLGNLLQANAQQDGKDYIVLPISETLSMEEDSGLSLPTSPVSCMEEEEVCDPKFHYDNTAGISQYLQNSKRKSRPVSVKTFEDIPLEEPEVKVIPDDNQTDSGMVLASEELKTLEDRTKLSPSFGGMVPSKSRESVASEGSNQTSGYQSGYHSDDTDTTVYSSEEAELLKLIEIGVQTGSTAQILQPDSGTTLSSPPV
Source text: To characterize the RTK inhibitory activity of the antiangiogenic SMs described herein, 36 compounds were chosen and screened using Invitrogen's SelectScreen® kinase activity profiling service (described on-line at tools.invitrogen.com/content.cfm?pageid=10413#selection). VEGFR1 and FGFR2 RTK inhibitory activities were studied. […] Overall, a small minority of the SMs tested had any substantial kinase inhibitory activity. This observation supports a mechanism of antiangiogenic action other than RTK inhibition for most of the SMs described herein.

SK-ML-1 tumors [4] = assay: SK-ML-1 tumor xenograft; conditions: 100 μl of 10 μM IP, three times a week for four weeks
A549 tumors = conditions: positive control; cited from earlier work
SK-ML-1 tumors [5] = conditions: positive control; cited from earlier work
[6] = HTS at 1 μM final concentration

For “2,5-dibromo-3,6-dimethylbenzene-1,4- diol; 2,5-dibromo-3,6- dimethylcyclohexa-2,5-diene-1,4-dione [Compound 72]”, the IC50 (PAE cells [1]) was 1.39e-10 M, the “Apoptosis PAE (RFU)” value (PAE) was 1.368 RFU and the “Cytotoxicity (%)” value (PAE cells [2]) was 13.88%. For the same compound, the Bioactivity (endothelial cells) was 3.
In the case of “3-[(2,4- dimethylphenyl)carbamoyl]naphthalen-2- olate; N-(2,4-dimethylphenyl)-3- hydroxynaphthalene-2-carboxamide; nickel(2+) [Compound 37]”, the IC50 (PAE cells [1]) is reported as greater than 1e-06 M, the “Apoptosis PAE (RFU)” value (PAE) is reported as 2.037 RFU and the Bioactivity (endothelial cells) is reported as 1.
For CC1(C)N=C(N)N=C(N)N1CCCCc1ccccc1.Cl [Compound 11, 6,6-dimethyl-1-(4-phenylbutyl)-1,3,5-triazine-2,4-diamine hydrochloride], the IC50 (PAE cells [1]; Sus scrofa, PAE cells) was 2.37e-11 M, the cytotoxicity (in vitro) was 18.7% and the “cytotoxicity (in words)” value (PAE cells [3]) was “cytotoxic”.
With CC(=O)O/C(=C1\C[C@H]2[C@@H]3CC=C4C[C@@H](OC(C)=O)CC[C@]4(C)[C@H]3CC[C@]2(C)C1=O)C(F)(F)F [Compound 31, [(3S,8R,9S,10R,13S,14S,16E)-16-(1-acetyloxy-2,2,2-trifluoroethylidene)-10,13-dimethyl-17-oxo-2,3,4,7,8,9,11,12,14,15-decahydro-1H-cyclopenta[a]phenanthren-3-yl]acetate] the IC50 (PAE cells [1]; Sus scrofa, PAE cells) was 0.000506 M and the cytotoxicity (in vitro) was 7.62%.
Work on CS(=O)(=O)Nc1ccc(Nc2c3ccccc3nc3ccccc23)cc1 [Compound 32, N-[4-(acridin-9-ylamino)phenyl]-methanesulfonamide; methanesulfonic acid] yielded an IC50 (PAE cells [1]; Sus scrofa, PAE cells) greater than 1e-06 M and a cytotoxicity (in vitro) of 6.82%.
With Cc1cc(Cc2cc(C)cc(C(C)(C)C)c2O)c(O)c(Cc2cc(C)cc(C(C)(C)C)c2O)c1 [Compound 33, 2-tert-butyl-6-[[3-[(3-tert-butyl-2-hydroxy-5-methylphenyl)methyl]-2-hydroxy-5-methylphenyl]methyl]-4-methylphenol] the IC50 (PAE cells [1]; Sus scrofa, PAE cells) was 2.8e-10 M and the cytotoxicity (in vitro) was 7.44%.
CCC1(OC(=O)CN)C(=O)OCc2c1cc1n(c2=O)Cc2cc3ccccc3nc2-1 (stereo not drawn) [Compound 34, 4-Ethyl-3,14-dioxo-3,4,12,14-tetrahydro-1H-pyrano[3′,4′:6,7]indolizino[1,2-b]quinolin-4-yl aminoacetate hydrochloride] showed an IC50 (PAE cells [1]; Sus scrofa, PAE) of 9.92e-12 M and a cytotoxicity (in vitro) of 10.2%.
Work on COc1cccc2c(O)c3c(c(N)c12)C(=O)C1=C(C[C@@](O)(C(C)=O)C[C@@H]1OC1CC(N)C(O)C(C)O1)C3=O (stereo partly drawn) [Compound 35, (1S,3S)-3-acetyl-11-amino-1-(4-amino-5-hydroxy-6-methyloxan-2-yl)oxy-3,6-dihydroxy-10-methoxy-2,4-dihydro-1H-tetracene-5,12-dione hydrochloride] yielded an IC50 (PAE cells [1]; Sus scrofa, PAE cells) of 2.41e-11 M and a cytotoxicity (in vitro) of 7.98%.
In the case of CCC(=O)OCN1C(=O)C=CC1=O [Compound 39, (2,5-dioxopyrrol-1-yl)methyl propanoate], the “RTK inhibitory activity (in words)” value (KDR(VEGFR2)) is reported as “showed RTK inhibitory activity”, the cytotoxicity (in vitro) is reported as 8.54% and the “type of inhibition (endothelial cell growth and/or tube formation)” value (shortened to “type of inhibition”) (endothelial cells; 1 μM) is reported as “tube formation”.
With COc1cc2cc(c1Cl)N(C)C(=O)CC(OC(=O)C(C)C)C1(C)OC1C(C)C1CC(O)(NC(=O)O1)C(OC)/C=C/C=C(\C)C2 (stereo not drawn) [Compound 56, Maytansinol isobutyrate or 4,24-Dioxa-9,22-diazatetracyclo[19.3.1.110,14.03,5] hexacosane, maytansine deriv.] the cytotoxicity (in vitro) was 7.52% and the “type of inhibition” value (endothelial cells) was “tube formation”.
In the case of COc1ccc(CC2C(=O)NC(C)C(=O)N(C)C3Cc4ccc(cc4)Oc4cc(ccc4O)CC(C(=O)NC(C)C(=O)NC(C)C(=O)N2C)N(C)C3=O)cc1 (stereo not drawn) [Compound 58, Deoxybouvardin or 24-hydroxy-10-(4-methoxybenzyl)-4,7,9,13,15,29-hexamethyl-22-oxa-3,6,9,12,15,29-hexaazatetracyclo-[14.12.2.2~18,21~.1~23,27~]tritriaconta-18,20,23(31),24,26,32-hexaene-2,5,8,11,14,30-hexone], the cytotoxicity (in vitro) is reported as 11.2%, the “inhibition of tumor growth, SK-ML-1 xenograft” value (from here on “inhibition of tumor growth”) (SK-ML-1 tumors [4]) is reported as “potencies similar to AVASTIN®” and the “type of inhibition” value (endothelial cells) is reported as “tube formation”.
With COc1ccc(CC2C(=O)NC(C)C(=O)N(C)C3C(=O)N(C)C(Cc4ccc(O)c(c4)Oc4ccc(cc4)C3O)C(=O)NC(C)C(=O)NC(C)C(=O)N2C)cc1 (stereo not drawn) [Compound 59, Bouvardin or 17,24-dihydroxy-10-(4-methoxybenzyl)-4,7,9,13,15,29-hexamethyl-22-oxa-3,6,9,12,15,29-hexaazatetracyclo-[14.12.2.2-18,21~.1~23,27~]tritriaconta-18,20,23(31),24,26,32-hexaene-2,5,8,11,14,30-hexone] the “Apoptosis PAE (RFU)” value (PAE) was 6.215 RFU, the “Cytotoxicity (%)” value (PAE cells [2]) was 9.794% and the Bioactivity (endothelial cells) was 2.
In the case of COc1ccc(-c2csc3c2-n2cccc2C3=O)cc1 [Compound 63, 3-(4-methoxyphenyl)thieno[2,3-b]pyrrolizin-8-one], the IC50 (PAE cells [1]; Sus scrofa, PAE cells) is reported as 1.55e-11 M, the cytotoxicity (in vitro) is reported as 7.48% and the “cytotoxicity (in words)” value (PAE cells [3]) is reported as “without cytotoxicity”. For the same compound, the “type of inhibition” value (endothelial cells; 1 μM) was “inhibited both endothelial cell growth and tube formation”.
In the case of O=[N+]([O-])c1ccc(S(=O)(=O)Cc2ccccc2)c([N+](=O)[O-])c1 [Compound 64, 1-benzylsulfonyl-2,4-dinitrobenzene], the IC50 (PAE cells [1]; Sus scrofa, PAE cells) is reported as 2.79e-10 M, the “cytotoxicity (in words)” value (PAE cells [2]) is reported as “without cytotoxicity” and the cytotoxicity (in vitro) is reported as 7.09%. The “type of inhibition” value (endothelial cells; 1 μM) was “inhibited both endothelial cell growth and tube formation” and the “type of inhibition” value (endothelial cells; 1 μM, listed as NSC 122657) was “tube formation+growth”.
Work on OC(c1cc(-c2ccccc2)nc2c1ccc1ccccc12)C1CCCCN1 (stereo not drawn) [Compound 66, (2-phenylbenzo[h]quinolin-4-yl)-piperidin-2-ylmethanol] yielded an IC50 (PAE cells [1]; Sus scrofa, PAE cells) of 4.12e-10 M and a cytotoxicity (in vitro) of 13.1%.
For Cl.O=C1C(=Cc2ccccc2)C(NC2CCCCC2)c2ccccc21 (stereo not drawn) [Compound 67, 2-benzylidene-3-(cyclohexylamino)-3H-inden-1-one chloride], the IC50 (PAE cells [1]; Sus scrofa, PAE cells) was 9.16e-11 M, the cytotoxicity (in vitro) was 7.78% and the “inhibition of tumor growth” value (SK-ML-1 tumors [4]) was “potencies similar to AVASTIN®”. For the same compound, the “cytotoxicity (in words)” value (PAE cells [3]) was “without cytotoxicity”, the “type of inhibition” value (endothelial cells; 1 μM) was “inhibited both endothelial cell growth and tube formation” and the “type of inhibition” value (endothelial cells; 1 μM, listed as NSC 150117) was “tube formation+growth”.
With O=C(c1no[n+]([O-])c1C(=O)c1csc2ccccc12)c1csc2ccccc12 [Compound 68, [4-(1-benzothiophene-3-carbonyl)-2-oxido-1,2,5-oxadiazol-2-ium-3-yl]-(1-benzothiophen-3-yl)methanone] the IC50 (PAE cells [1]; Sus scrofa, PAE cells) was 1.4e-10 M, the cytotoxicity (in vitro) was 19.1% and the “cytotoxicity (in words)” value (PAE cells [3]) was “cytotoxic”.
For O=[As](O)(O)c1ccc(Cc2ccc([As](=O)(O)O)cc2)cc1 [Compound 69, [4-[(4-arsonophenyl)methyl]phenyl]arsonic acid], the IC50 (PAE cells [1]; Sus scrofa, PAE) was 3.84e-10 M, the “RTK inhibitory activity (in words)” value (KDR(VEGFR2)) was “showed RTK inhibitory activity” and the “cytotoxicity (in words)” value (PAE cells [2]) was “without cytotoxicity”. The cytotoxicity (in vitro) was 8.26%, the “inhibition of tumor growth” value (SK-ML-1 tumors [4]) was “potencies similar to AVASTIN®” and the “type of inhibition” value (endothelial cells) was “inhibited both endothelial cell growth and tube formation”.
For “AVASTIN®: monoclonal antibody directed against an isoform of VEGF, marketed under the trade name Avastin®; known antiangiogenic drug, positive control”, the “inhibition of growth of A549 (previously shown)” value (A549 tumors) is given as “significantly inhibit” and the “inhibition of growth of SK-ML-1 (previously shown)” value (SK-ML-1 tumors [5]) is given as “significantly inhibit”.
With “[benzylsulfanyl(sulfoniumylidene) methyl]-(1-pyridin-2- ylethylideneamino)azanide; chlorocopper [Compound 65]” the IC50 (PAE cells [1]; PAE cells) was 1.09e-11 M, the “Apoptosis PAE (RFU)” value (PAE; PAE cells) was 2.227 RFU and the Bioactivity (endothelial cells; [6]) was 3.
In the case of “azidobenzene; 1H-indene; prop-1-en-2- ylbenzene [Compound 49]”, the “Apoptosis PAE (RFU)” value (PAE) is reported as 1.235 RFU and the Bioactivity (endothelial cells) is reported as 2.
With “bromocopper; (dipyridin-2- ylmethylideneamino)- [methylsulfanyl(sulfoniumylidene) methyl]azanide [Compound 70]” the IC50 (PAE cells [1]; PAE cells) was 6.11e-12 M, the “Apoptosis PAE (RFU)” value (PAE; PAE cells) was 1.021 RFU and the “Cytotoxicity (%)” value (PAE cells [2]) was 38.53%. The “cytotoxicity (in words)” value (PAE cells [3]) was “cytotoxic” and the Bioactivity (endothelial cells; [6]) was 3.
For “zinc; 8-hydroxy-3,4,4a,5,6,7,8,8a- octahydro-2H-quinolin-1-ide-5-sulfonic acid; 5-sulfo-1,2-dihydroquinolin-8-olate [Compound 61]”, the “Apoptosis PAE (RFU)” value (PAE) was 1.841 RFU, the “Cytotoxicity (%)” value (PAE cells [2]) was 7.901% and the Bioactivity (endothelial cells) was 2.
